Measured values reported in PMC6493301, “Targeting host metabolism by inhibition of acetyl-Coenzyme A carboxylase reduces flavivirus infection in mouse models” (Emerging Microbes & Infections, 2019).
Read-outs that look alike come from different tables or passages of the source.

Key:
WNV [1] = assay: Virucidal assay, WNV preincubated with compound then titrated by plaque assay; details: 5 µg/mL, 1 h at 37°C
ZIKV = ZIKV multiplication in Vero cells, virus yield by plaque assay; details: for EC50: Zika virus, Vero, 24 h, read-out: EC50 ZIKV; for SI (CC50/EC50) ZIKV: calculated at 24 h
WNV [2] = assay: Time of addition assay, WNV-infected Vero cells; assay type: cell-based, West Nile virus; details: 5 µg/mL, MOI 1 PFU/cell, 24 h
[3] = Mouse pharmacokinetics after a single oral dose; assay type: in vivo; details: fasted male mice, mean ± SD, n = 3; for Cmax: male, read-out: Cmax, maximum plasma-concentration; for Cmax / AUC / Tmax: mouse, in vivo, po; for AUC: 0.5% methyl cellulose suspension, read-out: AUC(Exp), area under the plasma-concentration-time curve; for Tmax: read-out: Tmax, time to reach the maximum plasma-concentration
Procedure: (§1) Pharmacokinetics was analyzed after a single oral (p.o.) dose of the compounds (in a 0.5% methyl cellulose suspension) administered to fasted male mice. […] Antiviral activity in vivo was determined using eight-week-old Swiss albino CD-1 female mice (Envigo, Huntingdon, UK). […] Control mice were treated in parallel with drug vehicle (carboxymethylcellulose). For experiments evaluating the effect of genetic deletion of ACC2 gene on WNV infection, a breeding colony of C57BL/6 ACC2^-/- mice was established from two heterozygous Acab^tm1Dejs females. Age- and sex-matched eight-week-old ACC2^-/- and control wild type (WT) mice were challenged with WNV (1 × 10^4 PFU/animal, i.p.). Animals were monitored daily and received water and food ad libitum.

WNV [4] = assay: WNV multiplication in Vero cells, virus yield by plaque assay; details: for EC50: West Nile virus, Vero, 24 h, read-out: EC50 WNV; for SI (CC50/EC50) WNV: calculated at 24 h
DENV = DENV multiplication in Vero cells, virus yield by plaque assay; details: for EC50: Dengue virus, Vero, 48 h, read-out: EC50 DENV; for SI (CC50/EC50) DENV: calculated at 48 h
human ACC1 = human ACC1 (Homo sapiens, UniProt Q13085); assay: Radiometric ACC inhibition assay, human ACC1; assay type: biochemical
Procedure: (§2) (-)-Epicgallocathechin gallate, EGCG (catalog no. 0981 S) was from Extrasynthese (Genay, France). […] Apparent permeability was assessed in low-efflux MDCKII cells. In vitro potencies of the inhibitors were determined using a radiometric assay. For tissue culture experiments, drugs were suspended in DMSO. Control cells were treated in parallel with the same amount of DMSO (vehicle). Cell viability was estimated in uninfected cells by ATP measurement using Cell Titer Glo luminescent cell viability assay (catalog no. G7579; Promega, Madison, WI). […] Cells were lysed by adding equal amounts of Cell Titer Glo reagent (100 µL/well) and gentle rocking (2 min) in an orbital shaker. The amount of ATP in each sample was determined by luminescence measurement using white microplates and a TECAN Genius (Zurich, Switzerland) microplate reader.

rat ACC1 = rat ACC1 (Rattus norvegicus, UniProt P11497); assay: Radiometric ACC inhibition assay, rat ACC1; assay type: biochemical
Procedure: as §2

human ACC2 = human ACC2 (Homo sapiens, UniProt O00763); assay: Radiometric ACC inhibition assay, human ACC2; assay type: biochemical
Procedure: as §2

[5] = Apparent permeability in low-efflux MDCKII cells; details: dog, MDCK
Procedure: as §2

rat ACC2 = rat ACC2 (Rattus norvegicus, UniProt Q1HEC0); assay: Radiometric ACC inhibition assay, rat ACC2; assay type: biochemical
Procedure: as §2

[6] = Cell viability by ATP measurement (Cell Titer Glo) in uninfected Vero cells; details: African green monkey
Procedure: as §2

WNV [7] = assay: Antiviral activity against WNV in mice, viral burden by quantitative RT-PCR; assay type: in vivo; details: CD-1 female mice, 20 mg/kg p.o. twice a day
Procedure: as §1
RNA was automatically extracted using a QIAcube equipment (QIAGEN GmbH, Hilden, Germany) and QIAamp viral RNA Mini Kit (QIAGEN, catalog no. 52906) for sera or RNeasy Mini Kit (QIAGEN, catalog no. 74106) for tissue homogenates. The content of viral RNA in each sample was analyzed by real-time fluorogenic reverse transcriptase PCR by comparison with previously titrated samples and determined as PFU equivalents/mL [22].

[8] = WNV i.p., 7 days post-infection
[9] = single p.o. dose 100 mg/kg, 100 mg/kg
[10] = 100 mg/kg, single p.o. dose 100 mg/kg

human ACC2, sequence (O00763 whole entry): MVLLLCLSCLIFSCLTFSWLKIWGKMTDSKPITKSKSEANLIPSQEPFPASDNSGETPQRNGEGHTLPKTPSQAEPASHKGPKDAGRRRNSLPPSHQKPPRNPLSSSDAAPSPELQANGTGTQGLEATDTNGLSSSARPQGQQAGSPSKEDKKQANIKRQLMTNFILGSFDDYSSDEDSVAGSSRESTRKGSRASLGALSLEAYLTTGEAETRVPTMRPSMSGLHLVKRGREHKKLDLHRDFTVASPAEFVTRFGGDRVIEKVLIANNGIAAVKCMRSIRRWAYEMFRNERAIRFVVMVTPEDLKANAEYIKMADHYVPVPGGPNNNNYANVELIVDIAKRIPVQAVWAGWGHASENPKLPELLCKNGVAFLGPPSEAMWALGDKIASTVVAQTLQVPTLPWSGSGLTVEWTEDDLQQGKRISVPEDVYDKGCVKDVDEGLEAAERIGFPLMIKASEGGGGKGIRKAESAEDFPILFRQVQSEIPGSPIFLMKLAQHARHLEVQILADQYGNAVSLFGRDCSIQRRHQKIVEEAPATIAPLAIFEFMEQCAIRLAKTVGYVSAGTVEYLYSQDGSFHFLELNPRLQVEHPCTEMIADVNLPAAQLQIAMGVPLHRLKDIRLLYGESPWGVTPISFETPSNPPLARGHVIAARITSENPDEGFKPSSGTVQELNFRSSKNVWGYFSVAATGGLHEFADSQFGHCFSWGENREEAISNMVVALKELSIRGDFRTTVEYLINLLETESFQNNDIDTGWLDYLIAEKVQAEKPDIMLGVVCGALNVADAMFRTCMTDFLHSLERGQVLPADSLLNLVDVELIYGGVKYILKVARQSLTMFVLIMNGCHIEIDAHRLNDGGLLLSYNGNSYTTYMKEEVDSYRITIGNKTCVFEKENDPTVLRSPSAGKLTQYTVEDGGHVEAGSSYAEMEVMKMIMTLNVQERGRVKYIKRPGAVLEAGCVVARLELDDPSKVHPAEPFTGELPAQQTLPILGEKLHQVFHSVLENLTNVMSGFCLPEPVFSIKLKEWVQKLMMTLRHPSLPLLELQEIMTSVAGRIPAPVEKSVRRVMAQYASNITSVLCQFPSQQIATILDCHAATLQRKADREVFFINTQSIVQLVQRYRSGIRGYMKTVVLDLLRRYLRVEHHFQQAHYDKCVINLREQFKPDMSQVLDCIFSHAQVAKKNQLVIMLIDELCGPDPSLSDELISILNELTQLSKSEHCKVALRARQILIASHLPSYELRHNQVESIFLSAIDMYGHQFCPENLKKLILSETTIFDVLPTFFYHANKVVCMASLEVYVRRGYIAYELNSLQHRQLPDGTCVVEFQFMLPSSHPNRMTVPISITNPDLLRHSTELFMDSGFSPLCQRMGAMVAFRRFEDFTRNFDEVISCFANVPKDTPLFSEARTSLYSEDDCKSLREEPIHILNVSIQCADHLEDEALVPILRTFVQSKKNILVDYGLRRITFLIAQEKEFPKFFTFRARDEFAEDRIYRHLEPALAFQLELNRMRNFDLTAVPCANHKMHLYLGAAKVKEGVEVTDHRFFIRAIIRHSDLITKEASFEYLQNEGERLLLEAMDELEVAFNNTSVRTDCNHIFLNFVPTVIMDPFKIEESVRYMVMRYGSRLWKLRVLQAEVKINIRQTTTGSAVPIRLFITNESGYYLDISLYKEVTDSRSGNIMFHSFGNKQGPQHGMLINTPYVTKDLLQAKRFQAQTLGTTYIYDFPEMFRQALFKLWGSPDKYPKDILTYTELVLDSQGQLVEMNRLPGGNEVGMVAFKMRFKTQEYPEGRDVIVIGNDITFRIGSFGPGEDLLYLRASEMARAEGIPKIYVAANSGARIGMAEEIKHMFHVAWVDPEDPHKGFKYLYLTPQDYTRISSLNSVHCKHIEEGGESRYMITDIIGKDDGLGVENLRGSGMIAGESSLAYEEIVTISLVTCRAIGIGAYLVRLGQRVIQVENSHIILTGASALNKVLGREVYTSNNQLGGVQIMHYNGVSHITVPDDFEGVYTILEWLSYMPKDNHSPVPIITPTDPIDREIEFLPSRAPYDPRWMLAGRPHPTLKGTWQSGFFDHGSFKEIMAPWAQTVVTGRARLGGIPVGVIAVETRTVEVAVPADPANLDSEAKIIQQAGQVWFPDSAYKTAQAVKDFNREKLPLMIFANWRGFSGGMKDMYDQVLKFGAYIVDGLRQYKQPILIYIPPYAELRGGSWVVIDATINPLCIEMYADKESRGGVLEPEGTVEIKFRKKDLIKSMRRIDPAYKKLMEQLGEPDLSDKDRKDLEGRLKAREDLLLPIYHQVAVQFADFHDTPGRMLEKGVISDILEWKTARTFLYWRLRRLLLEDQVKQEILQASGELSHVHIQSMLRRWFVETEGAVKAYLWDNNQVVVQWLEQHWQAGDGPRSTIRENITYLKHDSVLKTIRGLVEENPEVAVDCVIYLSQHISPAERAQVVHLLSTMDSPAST
rat ACC2, sequence (Q1HEC0 17-2455): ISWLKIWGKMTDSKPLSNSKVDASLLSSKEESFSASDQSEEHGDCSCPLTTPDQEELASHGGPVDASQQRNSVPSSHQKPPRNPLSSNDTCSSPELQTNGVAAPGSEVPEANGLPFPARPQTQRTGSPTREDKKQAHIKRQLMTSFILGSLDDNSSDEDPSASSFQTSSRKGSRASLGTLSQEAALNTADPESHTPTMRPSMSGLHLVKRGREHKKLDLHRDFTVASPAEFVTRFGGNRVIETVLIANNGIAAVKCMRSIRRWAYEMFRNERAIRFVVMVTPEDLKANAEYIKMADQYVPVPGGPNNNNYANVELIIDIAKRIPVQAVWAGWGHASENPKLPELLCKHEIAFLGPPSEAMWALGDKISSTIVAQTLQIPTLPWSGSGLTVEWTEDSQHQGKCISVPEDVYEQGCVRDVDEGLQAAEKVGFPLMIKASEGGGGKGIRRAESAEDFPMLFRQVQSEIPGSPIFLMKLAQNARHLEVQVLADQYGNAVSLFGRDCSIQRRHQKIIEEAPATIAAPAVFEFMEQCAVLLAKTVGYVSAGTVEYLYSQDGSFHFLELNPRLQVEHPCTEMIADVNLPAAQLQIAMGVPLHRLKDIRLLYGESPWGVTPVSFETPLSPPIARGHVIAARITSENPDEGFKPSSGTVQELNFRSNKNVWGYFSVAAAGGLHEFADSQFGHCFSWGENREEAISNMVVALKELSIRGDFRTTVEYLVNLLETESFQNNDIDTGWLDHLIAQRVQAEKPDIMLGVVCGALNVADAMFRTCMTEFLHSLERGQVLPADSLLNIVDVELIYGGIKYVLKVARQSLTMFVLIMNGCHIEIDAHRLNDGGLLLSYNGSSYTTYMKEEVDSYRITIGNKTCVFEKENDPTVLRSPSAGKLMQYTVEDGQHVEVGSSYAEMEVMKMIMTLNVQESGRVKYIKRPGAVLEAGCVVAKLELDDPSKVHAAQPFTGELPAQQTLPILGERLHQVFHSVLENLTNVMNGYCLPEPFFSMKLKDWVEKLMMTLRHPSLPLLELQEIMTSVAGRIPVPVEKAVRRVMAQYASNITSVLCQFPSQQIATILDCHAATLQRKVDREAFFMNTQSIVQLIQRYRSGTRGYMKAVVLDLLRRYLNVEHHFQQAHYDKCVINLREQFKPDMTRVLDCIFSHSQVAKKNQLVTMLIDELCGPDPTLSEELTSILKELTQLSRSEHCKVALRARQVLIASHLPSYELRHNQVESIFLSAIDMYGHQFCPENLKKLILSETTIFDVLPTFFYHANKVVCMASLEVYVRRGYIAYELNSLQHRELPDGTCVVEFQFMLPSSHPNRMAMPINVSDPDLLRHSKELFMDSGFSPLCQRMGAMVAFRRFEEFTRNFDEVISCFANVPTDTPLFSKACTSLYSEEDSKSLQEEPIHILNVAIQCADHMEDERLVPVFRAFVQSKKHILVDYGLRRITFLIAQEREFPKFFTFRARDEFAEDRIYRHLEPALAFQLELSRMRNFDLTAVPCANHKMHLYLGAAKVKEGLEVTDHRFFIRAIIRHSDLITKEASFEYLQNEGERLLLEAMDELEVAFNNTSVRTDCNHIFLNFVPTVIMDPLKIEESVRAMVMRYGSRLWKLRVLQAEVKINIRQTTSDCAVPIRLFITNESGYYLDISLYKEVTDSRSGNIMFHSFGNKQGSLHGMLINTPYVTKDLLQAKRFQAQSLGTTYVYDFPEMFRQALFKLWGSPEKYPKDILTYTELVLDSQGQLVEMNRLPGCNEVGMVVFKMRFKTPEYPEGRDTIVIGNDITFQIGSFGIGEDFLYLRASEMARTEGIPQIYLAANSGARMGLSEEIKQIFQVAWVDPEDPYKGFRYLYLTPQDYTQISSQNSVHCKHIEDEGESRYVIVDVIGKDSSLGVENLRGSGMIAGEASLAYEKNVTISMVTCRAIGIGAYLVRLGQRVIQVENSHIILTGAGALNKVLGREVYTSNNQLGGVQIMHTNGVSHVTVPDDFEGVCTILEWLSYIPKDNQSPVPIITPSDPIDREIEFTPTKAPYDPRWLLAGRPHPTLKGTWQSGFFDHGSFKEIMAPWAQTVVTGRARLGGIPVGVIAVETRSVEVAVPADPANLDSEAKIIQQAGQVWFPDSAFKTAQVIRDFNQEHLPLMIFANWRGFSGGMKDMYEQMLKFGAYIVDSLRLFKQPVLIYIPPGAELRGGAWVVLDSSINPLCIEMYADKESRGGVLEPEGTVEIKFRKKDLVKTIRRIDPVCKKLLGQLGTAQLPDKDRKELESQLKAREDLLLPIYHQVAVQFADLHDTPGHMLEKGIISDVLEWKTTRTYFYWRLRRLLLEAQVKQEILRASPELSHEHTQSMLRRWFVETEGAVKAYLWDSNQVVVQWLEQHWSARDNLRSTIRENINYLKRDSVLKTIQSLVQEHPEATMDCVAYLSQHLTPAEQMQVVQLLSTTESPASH

Compound	Virucidal effect, remaining WNV infectivity (WNV [1])	EC50 (ZIKV)	WNV yield, drug added only 1 h before virus inoculation (pre-infection) (WNV [2])	EC50 (WNV [4])	EC50 (DENV)	IC50 (rat ACC1)	Papp [5]	IC50 (rat ACC2)	CC50 at 24 h [6]	CC50 at 48 h [6]	SI (CC50/EC50) ZIKV (ZIKV)	Cmax, maximum plasma-concentration [3, 9]	Cmax [3, 10]	AUC ([3]; single p.o. dose 100 mg/kg)	Tmax ([3]; single p.o. dose 100 mg/kg)	SI (CC50/EC50) WNV (WNV [4])	SI (CC50/EC50) DENV (DENV)	IC50 (human ACC1)	IC50 (human ACC2)	other results
O=C(O[C@@H]1Cc2c(O)cc(O)cc2O[C@@H]1c1cc(O)c(O)c(O)c1)c1cc(O)c(O)c(O)c1 [EGCG, (-)-Epicgallocathechin gallate, reference compound]	virucidal effect	–	–	–	–	–	–	–	–	–	–	–	–	–	–	–	–	–	–	–
Cc1nc2ccc(C(=O)N3CCC4(CC3)CC(=O)c3c(cnn3C(C)C)C4)cc2[nH]1 [PF-05175157]	Lack of virucidal effect	< 1.2 µM	did not affect WNV infection	2.7 ± 1.3 µM	1 ± 0.3 µM	0.024 ± 0.001 µM	7 ×10⁻⁶ cm/s	0.05 ± 0.003 µM	590 ± 37 µM	236 ± 11 µM	–	–	–	–	–	–	–	–	–	WNV yield, drug maintained after virus inoculation (post-infection) (WNV [2]): reduced viral production; Cmax ([3]; 15 mg/kg, single p.o. dose 15 mg/kg): 903 ± 495 ng/mL; AUC ([3]; single p.o. dose 15 mg/kg): 2170 ± 384 ng·h/mL; Tmax ([3]; single p.o. dose 15 mg/kg): 100 ± 121 min; IC50 (human ACC1; radiometric assay, geometric mean ± SEM, n = 3, read-out: IC50 human ACC1): 0.027 ± 0.003 µM; IC50 (human ACC2; radiometric assay, geometric mean ± SEM, n = 3, read-out: IC50 human ACC2): 0.033 ± 0.004 µM; Viral load in plasma (serum) vs vehicle (WNV [7]; WNV 1 × 10^4 PFU i.p., 3 and 4 days after infection): significant reduction of viral load in plasma; Viral RNA in the kidney vs vehicle (WNV [7]; [8]): significant reduction in the amount of viral RNA in the kidney; Viral RNA in the lung vs vehicle (WNV [7]; [8]): tendency for a reduction in the amount of viral RNA in the lung
CC(C)n1ncc2c1C(=O)CC1(CCN(C(=O)c3cc4ncccc4[nH]3)CC1)C2 [PF-05206574]	Lack of virucidal effect	< 1.3 µM	reduced the infection	1.9 ± 0.9 µM	< 1.3 µM	0.014 ± 0.003 µM	19 ×10⁻⁶ cm/s	0.018 ± 0.004 µM	> 1280 µM	415 ± 67 µM	>982	760 ± 240 ng/mL	760 to 1070 ng/mL	3700 ± 1440 ng·h/mL	23 ± 12 min	>672	>319	0.019 ± 0.004 µM	0.022 ± 0.009 µM	–
COc1ccc2ncc(C(=O)N3CCC4(CC3)CC(=O)c3c(cnn3C(C)C)C4)cc2c1 [PF-06256254]	Lack of virucidal effect	< 1.2 µM	reduced the infection	< 1.2 µM	1.5 ± 0.4 µM	0.011 µM	24 ×10⁻⁶ cm/s	0.015 µM	718 ± 314 µM	202 ± 22 µM	>598	1070 ± 452 ng/mL	760 to 1070 ng/mL	2900 ± 1070 ng·h/mL	33 ± 25.8 min	>598	135	0.01 ± 0.002 µM	0.01 ± 0.002 µM	–
